Source: PMC12444516, “Broad Substrate Specificity and High Catalytic Activity of Sphingomonadaceae PhoK-Type Phosphatases Implicated in Flame-Retardant Degradation” (ACS Omega, 2025)
Where two headings read alike, the source gives them in different places.

Legend:
Sb-PhoK [1] = system: T1, Sb-PhoK; format: biochemical, Sphingobium sp. TCM1; conditions: read-out: p-nitrophenyl phosphate (1) / K m
T1 construct: predicted Sec/SPI signal peptide; ~2 Zn per protein

St-PhoK [2] = system: T2, St-PhoK; format: biochemical, Sphingopyxis terrae; conditions: read-out: p-nitrophenyl phosphate (1) / K m
T2 construct: predicted Sec/SPI signal peptide; also printed Sp-PhoK

SmTDK1-PhoK [3] = system: T3, SmTDK1-PhoK; format: biochemical, Sphingomonas sp. TDK1; conditions: read-out: p-nitrophenyl phosphate (1) / K m
T3 construct: synthetic codon-optimised gene in pET29a with native stop codon, untagged; E. coli BL21(DE3); ammonium sulfate, Resource Q flow-through, S200; predicted Sec/SPI signal peptide

No-PhoK [4] = system: T4, No-PhoK; format: biochemical, Novosphingobium sp. EMRT-2; conditions: read-out: p-nitrophenyl phosphate (1) / K m
T4 construct: predicted Sec/SPI signal peptide

SmSRS2-PhoK [5] = system: T5, SmSRS2-PhoK; assay: UV/vis, p-nitrophenol release at […] nm, initial rates; format: biochemical, Sphingomonas sp. SRS2; conditions: 50 mM Ches pH 9.0; read-out: p-nitrophenyl phosphate (1) / K m
T5 construct: predicted Sec/SPI signal peptide; from a smaller PhoK cluster outside the main Sphingomonadaceae cluster

SmSRS2-PhoK [6] = system: T5, SmSRS2-PhoK; assay: UV/vis, phenol release at […] nm, initial rates; format: biochemical, Sphingomonas sp. SRS2; conditions: 50 mM Ches pH 9.0; read-out: phenyl phosphate (2) / K m
SmTDK1-PhoK [7] = conditions: read-out: phenyl phosphate (2) / K m
Sb-PhoK [8] = conditions: read-out: phenyl phosphate (2) / K m
St-PhoK [9] = conditions: read-out: phenyl phosphate (2) / K m
No-PhoK [10] = conditions: read-out: phenyl phosphate (2) / K m
purified protein [11] = substrate: O=P(O)(O)Oc1ccccc1; assay: purified protein; format: biochemical, Sphingomonas sp.; conditions: 50 mM Ches pH 9.0
purified protein [12] = substrate: O=[N+]([O-])c1ccc(OP(=O)(O)O)cc1; assay: purified protein; conditions: 50 mM Ches pH 9.0

O=[N+]([O-])c1ccc(OP(=O)(O)O)cc1 [compound 1, p-nitrophenyl phosphate]
Km (Sb-PhoK [1]): 69 ± 2 µM
Km (St-PhoK [2]): 78 ± 3 µM
Km (SmTDK1-PhoK [3]): 450 ± 10 µM
Km (No-PhoK [4]): 153 ± 5 µM
Km (SmSRS2-PhoK [5]): 88 ± 4 µM

O=P(O)(O)Oc1ccccc1 [compound 2, phenyl phosphate]
Km (SmSRS2-PhoK [6]): 104 ± 5 µM
Km (SmTDK1-PhoK [7]): 600 ± 20 µM
Km (Sb-PhoK [8]): 650 ± 30 µM
Km (St-PhoK [9]): 81 ± 5 µM
Km (No-PhoK [10]): 300 ± 20 µM

B1: Sm-PhoK (Sphingomonas sp.) (protein)
chain: QSPAPAAAPAPAARSIAATPPKLIVAISVDQFSADLFSEYRQYYTGGLKRLTSEGAVFPRGYQSHAATETCPGHSTILTGSRPSRTGIIANNWFDLDAKREDKNLYCAEDESQPGSSSDKYEASPLHLKVPTLGGRMKAANPATRVVSVAGKDRAAIMMGGATADQVWWLGGPQGYVSYKGVAPTPLVTQVNQAFAQRLAQPNPGFELPAQCVSKDFPVQAGNRTVGTGRFARDAGDYKGFRISPEQDAMTLAFAAAAIENMQLGKQAQTDIISIGLSATDYVGHTFGTEGTESCIQVDRLDTELGAFFDKLDKDGIDYVVVLTADHGGHDLPERHRMNAMPMEQRVDMALTPKALNATIAEKAGLPGKKVIWSDGPSGDIYYDKGLTAAQRARVETEALKYLRAHPQVQTVFTKAEIAATPSPSGPPESWSLIQEARASFYPSRSGDLLLLLKPRVMSIPEQAVMGSVATHGSPWDTDRRVPILFWRKGMQHFEQPLGVETVDILPSLAALIKLPVPKDQIDGRCLDLVAGKDDSCAGQ
notes: predicted Sec/SPI signal peptide; binuclear Zn site, nucleophile T89
Km (purified protein [11]): 600 ± 20 µM
kcat (purified protein [11]): 1100 ± 10 s⁻¹
kcat/Km (purified protein [11]): 1.84e+06 ± 60000 M⁻¹ s⁻¹
Km (purified protein [12]): 174 ± 4 µM
